In patent EP0937711A1, “Thiobenzamides, process for their preparation and medicaments containing them” (Roche Diagnostics GmbH, priority 1998, dated 1999):

What was measured:
Citratplasma = assay: Activated partial thromboplastin time (APTT) in citrate plasma; format: biochemical; settings: time as difference to control (control ca. 28-35 s); for APTT 1000: 1000 µM in final volume, stopped after 5 min (>300)
Procedure: (§1) Neun Teile frisches Blut gesunder Spender werden mit einem Teil Natriumcitratlösung (0.11 Mol/l) gemischt und bei ca. 3000 U/min 10 Minuten bei Raumtemperatur zentrifugiert. Das Plasma wird abpipettiert und kann bei Raumtemperatur ca. 8 h aufbewahrt werden.
100 µl Citratplasma und 100 µl APTT-Reagenz (Diagnostica Stago / Boehringer Mannheim GmbH; enthält Lyophilisat Cephalin mit mikrokristallinem Kieselguraktivator) werden zusammen mit 10 µl Dimethylsulfoxid (DMSO) oder 10 µl einer Lösung der Wirksubstanz in DMSO in einem Kugelkoagulometer (KC10 der Fa. Amelung) 3 Minuten bei 37°C inkubiert. Mit Zugabe von 100 µl 0.025 M Calciumchlorid-Lösung wird eine Stoppuhr gestartet und der Zeitpunkt bis zum Eintritt der Gerinnung bestimmt. Die APTT beträgt bei den Kontrollmessungen ca. 28 -35 Sekunden und wird durch Wirksubstanzen verlängert. Sofern bei den Messungen nach 5 Minuten keine Gerinnung eintrat, wurde der Versuch gestoppt (>300).
In Tabelle 1 sind die gemessenen APTT-Zeiten in Sekunden als Differenz zur Kontrolle angegeben. Die Konzentrationen der Wirksubstanzen betrugen im Endvolumen 1000 µM (APTT 1000), 100 µM (APTT 100), 10 µM (APTT 10), 1 µM (APTT 1).

humanem Faktor Xa = target: T1, humanem Faktor Xa (Homo sapiens, UniProt P00742); assay: Inhibition constants (Ki), chromogenic substrate Chromozym X, FXa; format: biochemical; settings: pH 7.5, 25°C, 0.1 M phosphate buffer
T1 construct: humanem Faktor Xa; purchased Boehringer Mannheim GmbH
T1 sequence (P00742 235-488 limits assumed): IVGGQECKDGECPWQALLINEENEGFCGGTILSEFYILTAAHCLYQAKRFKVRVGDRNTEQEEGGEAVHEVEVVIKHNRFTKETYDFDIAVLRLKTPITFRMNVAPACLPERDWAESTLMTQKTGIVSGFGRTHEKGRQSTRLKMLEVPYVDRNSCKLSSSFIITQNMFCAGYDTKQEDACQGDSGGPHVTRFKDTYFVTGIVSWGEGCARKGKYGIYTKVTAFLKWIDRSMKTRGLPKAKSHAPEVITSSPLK
T1 sequence (P00742 41-179 partner limits assumed): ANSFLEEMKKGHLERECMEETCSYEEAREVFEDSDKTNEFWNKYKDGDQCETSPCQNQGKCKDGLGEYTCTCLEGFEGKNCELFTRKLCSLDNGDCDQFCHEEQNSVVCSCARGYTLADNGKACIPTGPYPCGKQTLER
Procedure: (§2) Die kinetischen Messungen wurden in 0.2 M Kochsalz und 0.5 % Polyethylenglycol 6000 enthaltendem 0.1 M Phosphatpuffer (Herstellung siehe unten) bei pH 7.5 und 25°C in Polystyrol-Halbmikroküvetten in einem Gesamtvolumen von 1 mi durchgeführt. Die Reaktionen wurden durch Zugabe von Enzym zu vorinkubierten Lösungen, die entweder Dimethylsulfoxid (Kontrolle) oder Lösungen der Testsubstanz in DMSO (Inhibitor-Stocklösungen: 10 mM in DMSO) enthielten, gestartet. Die Zunahme der Extinktion bei 405 nm als Folge der Freisetzung von 4-Nitroanilin aus dem Substrat wurde photometrisch über einen Zeitraum von 12 Minuten verfolgt. Im Abstand von 20 Sekunden wurden Meßwerte (Extinktion vs. Zeit) ermittelt und diese Daten per Computer gespeichert.
(§3) Zur Bestimmung der Inhibitionskonstanten Ki wurde wie folgt vorgegangen: Die Geschwindigkeiten V0 (Extinktionsänderung pro Sekunde; Messungen ohne Inhibitor) und Vi (Extinktionsänderung pro Sekunde; Messungen mit Inhibitor) wurden durch lineare Regression bestimmt, wobei nur die Meßpunkte berücksichtigt wurden, bei der sich die Substratkonzentration um weniger als 15% verringerte. Aus einer Meßreihe (konstante Inhibitorkonzentration, variable Substratkonzentrationen) bestimmte man KM und VMAX durch nichtlinearen Fit auf die Gleichung V =(Vmax * [S])/([S] + KM) [formula] […]

Pferdethrombin = assay: Thrombin time in citrate plasma; format: biochemical, Pferd; settings: 500 µM in final volume; time as difference to control (control ca. 24 s)
Procedure: as §1
200 µl Citratplasma werden in einem Kugelkoagulometer (KC10 der Fa. Amelung) 2 Minuten bei 37°C inkubiert. Zu 190 µl vortemperiertem Thrombin-Reagenz (Boehringer Mannheim GmbH; enthält ca. 3 U/ml Pferdethrombin und 0.0125 M Ca^++ gibt man 10 µl Dimethylsulfoxid (DMSO) oder eine Lösung der Wirksubstanz in DMSO. Mit Zugabe dieser 200 µl Lösung zum Plasma wird eine Stoppuhr gestartet und der Zeitpunkt bis zum Eintritt der Gerinnung bestimmt. Die Thrombinzeit beträgt bei den Kontrollmessungen ca. 24 Sekunden und wird durch Wirksubstanzen verlängert. Sofern bei den Messungen nach 5 Minuten keine Gerinnung eintrat, wurde der Versuch gestoppt (>300).
In Tabelle 1 sind die gemessenen Thrombinzeiten in Sekunden als Differenz zur Kontrolle angegeben. Die Konzentrationen der Wirksubstanzen betrugen im Endvolumen 500 µM (TT 500).

Humanes α-Thrombin = target: T2, Humanes α-Thrombin (Homo sapiens, UniProt P00734); assay: Inhibition constants (Ki), chromogenic substrate S-2238, thrombin; format: biochemical; settings: pH 7.5, 25°C, 0.1 M phosphate buffer
T2 construct: Humanes α-Thrombin; purchased Sigma
Procedure: as §2, §3

[1] = target: T3, bovines pankreatisches Trypsin (Bos taurus, UniProt P00760); assay: Inhibition constants (Ki), chromogenic substrate S-2238, trypsin; format: biochemical, bovin; settings: pH 7.5, 25°C, 0.1 M phosphate buffer
T3 construct: purchased Sigma; host or cells: bovine pancreas
T3 sequence (P00760 24-246): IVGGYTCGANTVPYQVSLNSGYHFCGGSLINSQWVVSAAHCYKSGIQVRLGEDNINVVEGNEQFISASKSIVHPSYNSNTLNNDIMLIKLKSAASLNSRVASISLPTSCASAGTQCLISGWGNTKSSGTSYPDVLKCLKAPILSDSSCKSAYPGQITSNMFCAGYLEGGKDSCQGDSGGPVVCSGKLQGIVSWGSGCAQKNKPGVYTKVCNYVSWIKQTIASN
Procedure: as §2, §3

SMILES | APTT 1000 (Citratplasma) | further results
COC(=O)c1ccc(NC(=O)c2ccc3ccccc3c2)c(NC(=O)c2ccc(C(N)=S)cc2)c1 [Beispiel 1, 4-[(Naphthalin-2-carbonyl)-amino]-3-(4-thiocarbamoyl-benzoylamino)-benzoesäuremethylester] | 1 s | –
COC(=O)c1ccc(NC(=O)c2ccc(OC)cc2)c(NC(=O)c2ccc(C(N)=S)cc2)c1 [Beispiel 4, 4-(4-Methoxy-benzoylamino)-3-(4-thiocarbamoyl-benzoylamino)-benzoesäuremethylester] | 65.3 s | –
COC(=O)c1ccc(NC(=O)c2ccc(OC)c(OC)c2)c(NC(=O)c2ccc(C(N)=S)cc2)c1 [Beispiel 5, 4-(3,4-Dimethoxy-benzoylamino)-3-(4-thiocarbamoyl-benzoylamino)-benzoesäuremethylester] | 3.5 s | –
COC(=O)c1ccc(NS(=O)(=O)c2ccc3ccccc3c2)c(NC(=O)c2ccc(C(N)=S)cc2)c1 [Beispiel 8, 4-(Naphthalin-2-sulfonylamino)-3-(4-thiocarbamoyl-benzoylamino)-benzoesäuremethylester] | -0.4 s | –
NC(=S)c1ccc(C(=O)Nc2cc(C(=O)O)ccc2NS(=O)(=O)c2ccc3ccccc3c2)cc1 [Beispiel 10, 4-(Naphthalin-2-sulfonylamino)-3-(4-thiocarbamoyl-benzoylamino)-benzoesäure] | 0.7 s | –
COc1ccc(C(=O)Nc2ccccc2NC(=O)c2ccc(C(N)=S)cc2)cc1 [Beispiel 3, 2-(4-Methoxy-benzoylamino)-1-(4-thiocarbamoyl-benzoylamino)-benzol] | 157.9 s | Ki (humanem Faktor Xa): 0.05 µM; TT 500 (Pferdethrombin): 2.4 s; Ki (Humanes α-Thrombin): > 100 µM; APTT 1 (Citratplasma; 1 µM in final volume): 2.6 s; APTT 10 (Citratplasma; 10 µM in final volume): 8.4 s; APTT 100 (Citratplasma; 100 µM in final volume): 32.4 s; Ki [1]: > 100 µM
COC(=O)c1ccc(NS(=O)(=O)c2ccc(OC)cc2)c(NC(=O)c2ccc(C(N)=S)cc2)c1 [Beispiel 7, 4-(4-Methoxy-benzolsulfonylamino)-3-(4-thiocarbamoyl-benzoylamino)-benzoesäuremethylester] | 0.8 s | –
NC(=S)c1ccc(C(=O)Nc2cc(C(=O)O)ccc2NC(=O)c2ccc3ccccc3c2)cc1 [Beispiel 2, 4-[(Naphthalin-2-carbonyl)-amino]-3-(4-thiocarbamoyl-benzoylamino)-benzoesäure] | 9.4 s | –
COC(=O)c1ccc(NC(=O)c2ccccc2C(=O)O)c(NC(=O)c2ccc(C(N)=S)cc2)c1 [Beispiel 6, 4-(2-Carboxy-benzoylamino)-3-(4-thiocarbamoyl-benzoylamino)-benzoesäuremethylester] | 9.0 s | –
NC(=S)c1ccc(C(=O)Nc2ccccc2NC(=O)c2ccc(C(N)=S)cc2)cc1 [Beispiel 9, 1,2-Bis-(4-thiocarbamoyl-benzoylamino)-benzol] | 6.7 s | –
